The values below come from patent publication US11739098B2 (BRISTOL-MYERS SQUIBB COMPANY, priority 2017, dated 2023).

Where only a bound is given, the exact number is not on record here.

What all share (format): cell-based
The target in one assay is T1, human TLR9 (Homo sapiens, UniProt Q9NR96).
T1 construct: host or cells: HEK-Blue cells (HEK293-derived reporter line)
T1 sequence (Q9NR96 26-1032): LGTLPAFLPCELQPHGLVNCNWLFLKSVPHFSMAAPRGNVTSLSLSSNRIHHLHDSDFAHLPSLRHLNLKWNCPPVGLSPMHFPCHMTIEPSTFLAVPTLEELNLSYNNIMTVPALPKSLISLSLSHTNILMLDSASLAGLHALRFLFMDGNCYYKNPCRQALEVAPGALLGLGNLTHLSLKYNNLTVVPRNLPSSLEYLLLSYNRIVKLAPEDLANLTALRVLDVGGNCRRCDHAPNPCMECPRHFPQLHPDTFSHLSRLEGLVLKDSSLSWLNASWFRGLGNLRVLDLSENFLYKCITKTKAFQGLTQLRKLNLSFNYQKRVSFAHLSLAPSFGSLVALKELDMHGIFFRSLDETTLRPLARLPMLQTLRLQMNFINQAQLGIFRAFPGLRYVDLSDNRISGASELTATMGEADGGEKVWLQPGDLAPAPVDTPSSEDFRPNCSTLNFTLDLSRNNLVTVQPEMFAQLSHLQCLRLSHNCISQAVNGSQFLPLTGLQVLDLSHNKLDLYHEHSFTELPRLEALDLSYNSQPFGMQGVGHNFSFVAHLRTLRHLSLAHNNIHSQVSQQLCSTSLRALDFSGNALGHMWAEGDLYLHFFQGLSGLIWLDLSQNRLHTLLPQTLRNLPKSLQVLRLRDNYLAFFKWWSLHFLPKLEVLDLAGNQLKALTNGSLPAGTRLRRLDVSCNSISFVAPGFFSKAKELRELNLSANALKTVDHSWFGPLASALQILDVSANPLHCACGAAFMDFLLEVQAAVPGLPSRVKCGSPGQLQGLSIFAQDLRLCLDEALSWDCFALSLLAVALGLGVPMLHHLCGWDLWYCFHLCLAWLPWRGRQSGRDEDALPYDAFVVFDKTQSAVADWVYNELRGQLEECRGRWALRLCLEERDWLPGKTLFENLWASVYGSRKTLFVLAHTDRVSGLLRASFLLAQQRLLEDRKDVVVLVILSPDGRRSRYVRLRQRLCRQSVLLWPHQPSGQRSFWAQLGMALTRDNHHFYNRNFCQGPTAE
Nature of the assay: TLR9 inhibition reporter assay (HEK-Blue cells, SEAP reporter, ODN2006 stimulation). The note with it: HEK-Blue cells overexpressing human TLR9, SEAP reporter, ODN2006 5 nM. The method in brief: (§1)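 After 22 h at 37 °C, SEAP secretion was measured from human TLR7-, TLR8- or TLR9-expressing HEK-Blue reporter cells given compound (0.05 nM–50 μM) 30 min before agonist: 7.5 μM gardiquimod, 15.9 μM R848 or 5 nM ODN2006 respectively. Percent inhibition referenced to agonist-plus-DMSO and known-inhibitor wells.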
(Reporter assays use an easily measured gene product as a stand-in for the process of interest.)

In the next assay the target is T2, human TLR7 (Homo sapiens, UniProt Q9NYK1).
T2 construct: host or cells: HEK-Blue cells (HEK293-derived reporter line)
T2 sequence (Q9NYK1 27-1049): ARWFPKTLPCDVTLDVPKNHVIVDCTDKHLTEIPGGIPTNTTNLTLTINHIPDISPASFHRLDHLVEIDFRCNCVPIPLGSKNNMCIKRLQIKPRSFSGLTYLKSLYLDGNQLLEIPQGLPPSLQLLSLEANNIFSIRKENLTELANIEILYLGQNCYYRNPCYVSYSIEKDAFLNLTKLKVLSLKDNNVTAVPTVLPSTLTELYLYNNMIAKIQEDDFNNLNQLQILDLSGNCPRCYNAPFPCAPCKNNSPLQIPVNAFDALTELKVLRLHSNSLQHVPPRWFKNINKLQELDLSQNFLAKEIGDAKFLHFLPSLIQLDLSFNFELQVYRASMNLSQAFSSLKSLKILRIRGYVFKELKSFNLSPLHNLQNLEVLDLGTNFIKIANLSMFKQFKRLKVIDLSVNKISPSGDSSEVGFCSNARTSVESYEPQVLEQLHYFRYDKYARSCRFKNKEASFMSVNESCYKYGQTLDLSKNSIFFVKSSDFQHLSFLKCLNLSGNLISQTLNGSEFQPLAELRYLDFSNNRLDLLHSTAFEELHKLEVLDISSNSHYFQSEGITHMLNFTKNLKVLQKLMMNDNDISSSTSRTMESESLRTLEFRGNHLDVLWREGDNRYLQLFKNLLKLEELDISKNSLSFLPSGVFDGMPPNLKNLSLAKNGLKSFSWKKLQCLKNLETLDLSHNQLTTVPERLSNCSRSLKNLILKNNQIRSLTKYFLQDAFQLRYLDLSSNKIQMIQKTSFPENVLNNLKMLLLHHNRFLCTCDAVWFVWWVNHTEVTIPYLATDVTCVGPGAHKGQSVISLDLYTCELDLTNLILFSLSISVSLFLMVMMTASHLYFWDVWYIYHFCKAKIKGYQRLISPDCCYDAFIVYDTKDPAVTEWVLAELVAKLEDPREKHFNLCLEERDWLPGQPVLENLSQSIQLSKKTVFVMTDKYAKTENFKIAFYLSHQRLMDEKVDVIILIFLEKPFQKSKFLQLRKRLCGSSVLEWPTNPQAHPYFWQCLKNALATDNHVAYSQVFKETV
Description: TLR7 inhibition reporter assay (HEK-Blue cells, SEAP reporter, gardiquimod stimulation). Particulars: HEK-Blue cells overexpressing human TLR7, SEAP reporter, gardiquimod 7.5 μM. The method in brief: as §1

A further assay has as its target T3, human TLR8 (Homo sapiens, UniProt Q9NR97).
T3 construct: host or cells: HEK-Blue cells (HEK293-derived reporter line)
T3 sequence (Q9NR97 27-1041): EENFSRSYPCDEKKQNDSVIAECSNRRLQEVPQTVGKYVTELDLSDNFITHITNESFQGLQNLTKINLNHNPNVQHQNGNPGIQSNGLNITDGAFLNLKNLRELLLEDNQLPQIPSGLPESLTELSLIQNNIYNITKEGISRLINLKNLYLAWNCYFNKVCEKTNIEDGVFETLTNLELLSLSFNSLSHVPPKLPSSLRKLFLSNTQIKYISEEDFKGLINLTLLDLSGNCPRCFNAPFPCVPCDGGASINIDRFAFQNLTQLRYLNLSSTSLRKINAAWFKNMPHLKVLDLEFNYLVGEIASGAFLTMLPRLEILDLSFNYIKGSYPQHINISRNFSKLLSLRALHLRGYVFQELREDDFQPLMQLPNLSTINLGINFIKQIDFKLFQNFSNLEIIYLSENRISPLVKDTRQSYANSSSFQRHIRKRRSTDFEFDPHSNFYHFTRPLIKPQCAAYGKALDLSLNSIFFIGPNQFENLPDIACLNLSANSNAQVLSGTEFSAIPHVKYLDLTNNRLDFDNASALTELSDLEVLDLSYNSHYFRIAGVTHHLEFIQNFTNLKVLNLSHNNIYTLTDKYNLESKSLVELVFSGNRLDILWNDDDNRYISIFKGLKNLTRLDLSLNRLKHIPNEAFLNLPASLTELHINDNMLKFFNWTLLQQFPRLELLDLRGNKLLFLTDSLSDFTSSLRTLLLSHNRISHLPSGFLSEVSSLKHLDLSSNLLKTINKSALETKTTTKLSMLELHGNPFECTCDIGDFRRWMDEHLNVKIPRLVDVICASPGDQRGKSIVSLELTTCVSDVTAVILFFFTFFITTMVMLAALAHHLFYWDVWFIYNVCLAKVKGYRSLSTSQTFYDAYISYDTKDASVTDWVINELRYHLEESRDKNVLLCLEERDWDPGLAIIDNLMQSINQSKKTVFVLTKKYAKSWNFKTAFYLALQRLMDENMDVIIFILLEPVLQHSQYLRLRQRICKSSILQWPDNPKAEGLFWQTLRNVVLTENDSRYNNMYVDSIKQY
Nature of the assay: TLR8 inhibition reporter assay (HEK-Blue cells, SEAP reporter, R848 stimulation). The note with it: HEK-Blue cells overexpressing human TLR8, SEAP reporter, R848 15.9 μM. The procedure, abridged:
as §1

As a reminder, the IC50 is the concentration needed to halve the response being measured. The low end stands for higher potency, the high end for lower potency.

Take `CC(C)c1c(-c2cc(C(F)(F)F)c3nccn3c2)[nH]c2ccc(C3CCN(CC(=O)N(C)C)CC3)cc12` [Example 372, 2-(4-(3-isopropyl-2-(8-(trifluoromethyl)imidazo[1,2-a]pyridin-6-yl)-1H-indol-5-yl)piperidin-1-yl)-N,N-dimethylacetamide]: the IC50 on human TLR9 is 1000 to 50000 nM; against human TLR7, below 100 nM; against human TLR8, below 100 nM.
In the case of `Cc1cc(-c2[nH]c3ccc(C4CCNCC4)cc3c2C(C)C)cc2cnnn12` [Example 78, 5-(3-isopropyl-5-(piperidin-4-yl)-1H-indol-2-yl)-7-methyl-[1,2,3]triazolo[1,5-a]pyridine], the IC50 is 1000 to 50000 nM on human TLR9, below 100 nM on human TLR7 and below 100 nM on human TLR8.
Regarding `CC(C)c1c(-c2ccn3cnnc3c2)[nH]c2ccc(C3CCN(C4COC4)CC3)cc12` [Example 736, 7-(3-isopropyl-5-(1-(oxetan-3-yl)piperidin-4-yl)-1H-indol-2-yl)-[1,2,4]triazolo[4,3-a]pyridine], the figures for the IC50 against human TLR9, against human TLR7 and against human TLR8 were 1000 to 50000 nM, below 100 nM and 100 to 1000 nM, respectively.
Taken in the same sequence, the figures for `CNC(=O)CN1CCC(c2ccc3[nH]c(-c4cc(C)c5nc(C)c(C)n5c4)c(C(C)C)c3c2)CC1` [Example 429, 2-(4-(3-isopropyl-2-(2,3,8-trimethylimidazo[1,2-a]pyridin-6-yl)-1H-indol-5-yl)piperidin-1-yl)-N-methylacetamide] were 100 to 1000 nM, below 100 nM and 100 to 1000 nM.
Taken in the same sequence, the figures for `COc1cc(-c2[nH]c3ccc(C4CCN(CC(=O)N(C)C)CC4)cc3c2C(C)C)cn2cc(C(=O)N(C)C)nc12` [Example 432, 6-(5-(1-(2-(dimethylamino)-2-oxoethyl)piperidin-4-yl)-3-isopropyl-1H-indol-2-yl)-8-methoxy-N,N-dimethylimidazo[1,2-a]pyridine-2-carboxamide] were 1000 to 50000 nM, below 100 nM and below 100 nM.
Taken in the same sequence, the figures for `COc1cc(-c2[nH]c3ccc(C4CCN(C5COC5)CC4)cc3c2C(C)C)cc2nccn12` [Example 712, 7-(3-isopropyl-5-(1-(oxetan-3-yl)piperidin-4-yl)-1H-indol-2-yl)-5-methoxyimidazo[1,2-a]pyridine] were 100 to 1000 nM, 100 to 1000 nM and 100 to 1000 nM.
For the compound `CC(C)c1c(-c2cnc3ccnn3c2)[nH]c2ccc(C3CCN(C(=O)C[C@H](C)O)CC3)cc12` [Example 595, (S)-3-hydroxy-1-(4-(3-isopropyl-2-(pyrazolo[1,5-a]pyrimidin-6-yl)-1H-indol-5-yl)piperidin-1-yl)butan-1-one], the IC50 against human TLR9 was above 50000 nM; on human TLR7 it was above 3130 nM; at human TLR8 it was above 3130 nM.
Regarding `Cc1nc2cc(-c3[nH]c4ccc(C5CCN(C(=O)C[C@H](C)O)CC5)cc4c3C(C)C)ccn2n1` [Example 602, (S)-3-hydroxy-1-(4-(3-isopropyl-2-(2-methyl-[1,2,4]triazolo[1,5-a]pyridin-7-yl)-1H-indol-5-yl)piperidin-1-yl)butan-1-one], the IC50 against human TLR9 is above 50000 nM; against human TLR7 it was below 100 nM; at human TLR8, above 3130 nM.
Taken in the same sequence, the figures for `Cc1ncc(CN2CCC(c3ccc4[nH]c(-c5ccnc6[nH]ncc56)c(C(C)C)c4c3)CC2)[nH]1` [Example 869, 4-(3-isopropyl-5-(1-((2-methyl-1H-imidazol-5-yl)methyl)piperidin-4-yl)-1H-indol-2-yl)-1H-pyrazolo[3,4-b]pyridine] were 100 to 1000 nM, below 100 nM and below 100 nM.
Taken in the same sequence, the figures for `CCc1c(-c2ccnc3[nH]ncc23)[nH]c2ccc(C3CCNCC3F)cc12` (stereo not drawn) [Example 177, 4-(3-ethyl-5-(3-fluoropiperidin-4-yl)-1H-indol-2-yl)-1H-pyrazolo[3,4-b]pyridine] were 1000 to 50000 nM, below 100 nM and below 100 nM.
Take `CC(C)c1c(-c2cc(C(C)(C)O)c3nccn3c2)[nH]c2ccc(C3CCNCC3)cc12` [Example 134, 2-(6-(3-isopropyl-5-(piperidin-4-yl)-1H-indol-2-yl)imidazo[1,2-a]pyridin-8-yl)propan-2-ol]: the 50% inhibitory concentration (IC50) against human TLR9 is 100 to 1000 nM; against human TLR7 it was below 100 nM; against human TLR8, 100 to 1000 nM.
On to `Cc1c(C2CCNCC2)ccc2[nH]c(-c3ccnc4[nH]ncc34)c(C)c12` [Example 256, 4-(3,4-dimethyl-5-(piperidin-4-yl)-1H-indol-2-yl)-1H-pyrazolo[3,4-b]pyridine], for which the IC50 at human TLR9 is 1000 to 50000 nM; at human TLR7, below 100 nM; against human TLR8, below 100 nM.
For `CC1CC(N2CCC(c3ccc4[nH]c(-c5ccnc6[nH]ncc56)c(C(C)C)c4c3)CC2)CCN1` (stereo not drawn) [Example 820, 4-(3-isopropyl-5-(2′-methyl-[1,4′-bipiperidin]-4-yl)-1H-indol-2-yl)-1H-pyrazolo[3,4-b]pyridine], the IC50 against human TLR9, against human TLR7 and against human TLR8 was below 100 nM in each case.
